Results taken from publication PMC13575467, “Structural and functional characterisation of a reconstructed ancestral strigolactone receptor” (The Plant Journal, 2026).

Legend:
AtD14 [1] = biological target: T1, AtD14 (Arabidopsis thaliana, UniProt Q9SQR3); assay: competition of dYLG hydrolysis; type: biochemical; conditions: 5 μM dYLG, 0-50 μM competitor, 100 ng protein
T1 construct: gene D14; E. coli codon-optimised, 6xHis-SUMO fusion (pE-SUMO-Amp) from E. coli Rosetta, Ni-NTA, tag kept in assays
T1 sequence (Q9SQR3 1-267): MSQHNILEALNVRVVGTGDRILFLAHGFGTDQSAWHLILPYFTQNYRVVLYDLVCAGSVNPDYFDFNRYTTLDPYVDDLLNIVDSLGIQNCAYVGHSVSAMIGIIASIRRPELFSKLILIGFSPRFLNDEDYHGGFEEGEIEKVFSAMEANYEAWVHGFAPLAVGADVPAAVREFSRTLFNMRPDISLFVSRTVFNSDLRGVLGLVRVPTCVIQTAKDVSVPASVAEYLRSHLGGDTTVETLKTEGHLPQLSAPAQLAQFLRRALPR

AtD14 [2] = biological target: T1, AtD14; assay: differential scanning fluorimetry; type: binding; conditions: Tm lowered (destabilisation); ligand 0-200 μM
ancD14 (ancestral D14) [3] = biological target: T2, ancD14 (ancestral D14) (synthetic construct, UniProt Z9A6V6BWX9); assay: differential scanning fluorimetry; type: binding; conditions: Tm lowered (destabilisation); ligand 0-200 μM
T2 sequence (Z9A6V6BWX9 1-265): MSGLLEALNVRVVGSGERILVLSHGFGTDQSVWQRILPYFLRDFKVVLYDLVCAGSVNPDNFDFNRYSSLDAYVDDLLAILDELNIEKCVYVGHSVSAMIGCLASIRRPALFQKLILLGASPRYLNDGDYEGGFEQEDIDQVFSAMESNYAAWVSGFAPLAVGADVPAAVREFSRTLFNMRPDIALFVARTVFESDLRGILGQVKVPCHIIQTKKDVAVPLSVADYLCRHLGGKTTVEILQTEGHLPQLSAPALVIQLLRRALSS

ancD14 (ancestral D14) [4] = biological target: T2, ancD14 (ancestral D14); assay: differential scanning fluorimetry; type: binding; conditions: Tm lowered (destabilisation); ligand 0-200 μM; remark: listed apart in the source
ancD14 (ancestral D14) [5] = biological target: T2, ancD14 (ancestral D14); assay: competition of dYLG hydrolysis; type: biochemical; conditions: 5 μM dYLG, 0-50 μM competitor, 100 ng protein
AtD14 [6] = biological target: T1, AtD14; assay: differential scanning fluorimetry; type: binding; conditions: Tm lowered (destabilisation); ligand 0-200 μM; remark: listed apart in the source

O=C1C=C[C@@H](O/C=C2/C(=O)O[C@H]3c4ccccc4C[C@@H]23)O1 [dGR24^ent-5DS]
IC50 (AtD14 [1]): AtD14 activity was inhibited by all four enantiomers

CC1=C[C@H](O/C=C2/C(=O)O[C@@H]3c4ccccc4C[C@H]23)OC1=O [GR24^5DS]
dTm (decrease in melting temperature) (AtD14 [2]): 6.1 °C
dTm (decrease in melting temperature) (ancD14 (ancestral D14) [3]): 6.6 °C
IC50 (AtD14 [1]): GR24^5DS was a very effective competitor for AtD14

CC1=C[C@@H](O/C=C2/C(=O)O[C@H]3c4ccccc4C[C@@H]23)OC1=O [GR24^ent-5DS]
dTm (ancD14 (ancestral D14) [4]): albeit with a comparatively muted response to GR24^ ent‐5DS
IC50 (ancD14 (ancestral D14) [5]): GR24^ ent‐5DS also competed well with ancD14
IC50 (AtD14 [1]): AtD14 activity was inhibited by all four enantiomers
dTm (AtD14 [6]): AtD14 was thermally destabilised by both GR24^5DS and GR24^ ent‐5DS
